Measured values published in patent publication US4160643A, “Water soluble cationic azo dyestuffs containing a cyclammonium group” (Imperial Chemical Industries Limited, priority 1976, dated 1979).
Like-named read-outs stand apart in the source and are kept apart here. Values belong to the molecule of their own block, whether it stands above or below them.

Assays:
[1] = Solubility of dyestuffs in water; format: physicochemical
[2] = Behaviour in forming a liquid in a water/acetic acid/sulpholane solvent system; format: physicochemical; settings: Table 1; ambient temperature
[3] = Table 1, 25° C., read-out: Solubility in water at 25° C.
[4] = Table 3, dyestuff of Example 13 structure, chloride, 25° C., read-out: Solubility in water at 25° C.
[5] = Table 3, dyestuff of Example 13 structure, chloride, 50° C., read-out: Solubility in water at 50° C.
[6] = Table 4, dyestuff of Example 19 structure, acid sulphate, 25° C., read-out: Solubility in water at 25° C.
[7] = Table 4, dyestuff of Example 19 structure, acid sulphate, 50° C., read-out: Solubility in water at 50° C.

SMILES: O=[N+]([O-])c1ccc(N=Nc2ccc(NCC[n+]3ccccc3)c(Cl)c2)cc1 [Pyridine (Table 1)]
- solubility [1, 3]: < 2500 µg/mL
- Solubility of 1 part of dye in 1 part water 1.5 part acetic acid 1 part sulpholane [2]: Not a solution at ambient

SMILES: CCN(CC[n+]1ccccc1)c1ccc(N=Nc2c(Cl)cc([N+](=O)[O-])cc2Cl)cc1 [Pyridine (Table 4)]
- solubility [1, 6]: 10000 µg/mL
- solubility [1, 7]: 20000 µg/mL

SMILES: Cc1cccc[n+]1CCNc1ccc(N=Nc2ccc([N+](=O)[O-])cc2)cc1Cl [α-picoline]
- solubility [1, 3]: < 2500 µg/mL

SMILES: CCN(CC[n+]1ccc(C)cc1)c1ccc(N=Nc2ccc([N+](=O)[O-])cc2Cl)cc1 [γ-picoline (Table 3)]
- solubility [1, 4]: 10000 µg/mL
- solubility [1, 5]: 240000 µg/mL

Next, values leading:

- solubility [1, 4]: 10000 µg/mL
- solubility [1, 5]: 300000 µg/mL
SMILES: CCN(CC[n+]1ccccc1)c1ccc(N=Nc2ccc([N+](=O)[O-])cc2Cl)cc1 [Pyridine (Table 3)]

- solubility [1, 3]: 75000 to 100000 µg/mL
- Solubility of 1 part of dye in 1 part water 1.5 part acetic acid 1 part sulpholane [2]: Not a solution at ambient
SMILES: Cc1cc[n+](CCNc2ccc(N=Nc3ccc([N+](=O)[O-])cc3)cc2Cl)cc1 [γ-picoline (Table 1)]

- solubility [1, 6]: 1000 µg/mL
- solubility [1, 7]: 5000 µg/mL
SMILES: CCN(CC[n+]1ccc(C)cc1)c1ccc(N=Nc2c(Cl)cc([N+](=O)[O-])cc2Cl)cc1 [γ-picoline (Table 4)]
